In patent US7897588B2, “Agents and methods for enhancing bone formation” (The Regents of the University of California, priority 2003, dated 2011):

Columns and labels:
M2 cells = test: Adipogenesis of troglitazone-treated M2 cells (oil Red O staining, adipocyte count); assay type: cell-based, mouse; settings: M2 cells treated with Tro 10 μM, oxysterols 10 μM, 10 days
Procedure: Von Kossa and oil red O staining—Matrix mineralization in cell monolayers was detected by silver nitrate staining as previously described. Oil red O staining for detection of adipocytes was performed as previously described.
Test 1: M2 cells at 90% confluence were treated with vehicle (C), PPAR-γ activator, troglitazone 10 uM (Tro), alone or in combination with 10 μM oxysterols 20S-, 22R-, or 25S-hydroxycholesterol. After 8 days, adipocytes were identified by oil Red 0 staining and quantified by counting under a phase contrast microscope. FIG. 6A is a bar graph depicting the effect of oxysterols on reducing adipogenesis of MSC.
Test 2: (A) M2 cells at confluence were treated in RPMI containing 10% FBS with control vehicle or 10 μM troglitazone (Tro) in the absence or presence of 10 μM 20S or 22S oxysterols. After 10 days, adipocytes were visualized by oil Red O staining and quantified by light microscopy, shown in (B). Data from a representative of four experiments are shown, reported as the mean SD of quadruplicate determinations (p<0.001 for Tro vs. Tro+20S and Tro+22S). (C) M2 cells were treated at confluence with 10 μM Tro, alone or in combination with 10 μM 20S oxysterol. After 10 days, total RNA was isolated and analyzed for lipoprotein lipase (LPL), adipocyte P2 gene (aP2) or 18S rRNA expression by Northern blotting as described (Ref). Data from densitometric analysis of the Northern blot is shown in (D) as the average of duplicate samples, normalized to 18S rRNA.

[1] = tested on: M2-10B4 mouse marrow stromal cell line; test: Alkaline phosphatase (ALP) activity assay in M2 cells; assay type: cell-based; settings: for dose and time dependence of induction of alkaline phosphatase activity: concentrations between 0.5-10 μM; for alkaline phosphatase activity: ligands used at 10 μM, control C: 18±2, ±SD; for induction of alkaline phosphatase activity: osteogenic medium, 10 μM oxysterols, 3 days
Procedure: Cells: M2-10B4 mouse marrow stromal cell line obtained from American Type Culture Collection (ATCC, Rockville, Md., U.S.A.) was derived from bone marrow stromal cells of a (C57BL/6J×C3H/HeJ) F1 mouse, and support human and murine myelopoiesis in long-term cultures (as per ATCC) and have the ability to differentiate into osteoblastic and adipocytic cells. Unless specified, these cells were cultured in RPMI 1640 containing 10% heat-inactivated FBS, and supplemented with 1 mM sodium pyruvate, 100 U/ml penicillin, and 100 […] (all from Irvine Scientific).
Alkaline phosphatase activity assay: Colorimetric alkaline phosphatase (ALP) activity assay on whole cell extracts was performed as previously described.
Test 1: M2 cells at confluence were treated with control vehicle (C), or 10 μM oxysterols, in an osteogenic medium consisting of RPMI 1640 to which 10% fetal bovine serum (FBS), 50 μg/ml ascorbate and 3 mM beta-glycerophosphate (βGP) were added. After 3 days of incubation, alkaline phosphatase (ALP) activity was determined in cell homogenates by a colorimetric assay. […] FIG. 3A is a bar graph depicting the effect of various oxysterols on alkaline phosphatase activity in M2 cells.
M2 cells at confluence were treated in osteogenic medium with control vehicle (C) or a combination of 22R and 20S oxysterols, at the indicated concentrations. ALP activity was measured after 3 days as described above. […] FIG. 3B is a bar graph depicting the effect of a combination of oxysterols at various doses on alkaline phosphatase activity in M2 cells.
Test 2: M2 cells were grown in RPMI medium containing 10% fetal bovine serum (FBS). At confluence, the cells were treated in RPMI containing 5% FBS plus ascorbate at 50 μg/ml and β-glycerophosphate at 3 mM to induce osteoblastic differentiation. Adipogenic differentiation was induced by treating the cells in growth medium plus 10 ˜M troglitazone. A vehicle (C) or oxysterol treatment was applied to cells in a variety of doses (in μM): 20S-Hydroxycholesterol, 25-Hydroxycholesterol, 22R-Hydroxycholesterol; 22S-Hydroxycholesterol; 7-ketocholesterol. Cells were always treated at 90% confluence. After 4 days, alkaline phosphatase activity was determined in whole cell lysates and normalized to protein. Alternatively, MSC cultures were prepared and treated with oxysterols as described above. Cells were treated at 90% confluence with the combination of 22R-Hydroxycholesterol and 20S-Hydroxycholesterol, each at 5 uM, for 4 to 96 hours. The oxysterols where removed and fresh media without oxysterols was added for a total duration of 96 hours. Alkaline phosphatase activity was measured in whole cell extracts and normalized to protein.
M2 cells were treated at 90% confluence with vehicle (C), or oxysterols 20S-Hydroxycholesterol or 22S-Hydroxycholesterol at (0.5 μM) or (1 μM), in the absence or presence of cytochrome P450 inhibitor (SKF525A 10 μM (+)). MSC cultures were also treated at 90% confluence with vehicle (C), or 20S-Hydroxycholesterol (2 μM), in the absence or presence of cytochrome P450 […] (Benzylimidazole 50 μM) or SKF525A (10 μM). After 4 days, alkaline phosphatase activity was measured in whole cell extracts and normalized to protein.
Next, a combination of 22R and 20S oxysterols (RS, 2.5 μM each) were added in the presence or absence of SC as indicated. After 3 days, ALP activity was measured as described earlier. […] (B) M2 cells were treated as described in (A) and after 10 days matrix mineralization in cultures was quantified by a ^45Ca incorporation assay as described earlier.

Row | Structure (SMILES) | inhibition of adipogenesis (M2 cells) | dose and time dependence of induction of alkaline phosphatase activity [1] | alkaline phosphatase activity [1] [activity units/mg protein] | induction of alkaline phosphatase activity [1] | effect on alkaline phosphatase activity ([1]; TO at 1-10 μM)
1 | CC(C)CCC[C@](C)(O)[C@H]1CC[C@H]2[C@@H]3CC=C4C[C@@H](O)CC[C@]4(C)[C@H]3CC[C@@]21C [20S, 20(S)-hydroxycholesterol] | inhibited adipogenesis | dose- and time-dependent | 140±12 | induced | –
2 | CC(C)CC[C@@H](O)[C@@H](C)[C@H]1CC[C@H]2[C@@H]3CC=C4C[C@@H](O)CC[C@]4(C)[C@H]3CC[C@]12C [22R, 22(R)-hydroxycholesterol] | inhibited adipogenesis | dose- and time-dependent | 45±5 | induced | –
3 | CC(C)CC[C@H](O)[C@@H](C)[C@H]1CC[C@H]2[C@@H]3CC=C4C[C@@H](O)CC[C@]4(C)[C@H]3CC[C@]12C [22S, 22(S)-hydroxycholesterol] | inhibited adipogenesis | dose- and time-dependent | – | induced | –
4 | O=S(=O)(c1ccccc1)N(CC(F)(F)F)c1ccc(C(O)(C(F)(F)F)C(F)(F)F)cc1 [TO, TO-901317] | – | – | 3±0.5 | – | dose-dependent inhibition
